Experimental data from patent US10344279B2, “Methods for the prevention and the treatment of extracapillary glomerulonephritis” (INSERM (Institut National de la Sante et de la Recherche …, priority 2014, dated 2019).

Tests used:
primary podocytes = assay: Wound assay of podocyte migration; assay type: cell-based, mouse; settings: Stattic 2 μM, migration within 12 hours
Description: After 4 days of primary culture, podocytes were trypsinized then plated into μ-Dish 35 mm high with Culture-Insert (Ibidi). Ibidi's wounding inserts were used for cell migration studies. The coverage of the 500-μm gap was assessed after 12 hours of culture and podocyte migration area was quantified using ImageJ software. The effects of HB-EGF (10 ng/mL, Preprotech) or AG1478 (1 μM, Calbiochem) or anti-mIL-6 monoclonal antibody MP5-20F3 (10 μg/mL, eBiosciences) or Stattic (2 μM, Calbiochem) on differentiated podocytes was applied during 16 hours. After stimulation, podocytes were scrapped in Phosphosafe buffer for protein extraction or in RLT buffer for total RNA extraction.

miR-92a = assay: RT-qPCR for miR-92a in transfected primary podocytes; assay type: cell-based, mouse; settings: transfection with anti-miR-92a inhibitor (Ambion, 50 nM); normalized to U6

| Molecule | migratory phenotype of podocytes (primary podocytes) | migratory phenotype of podocytes (primary podocytes; listed as STAT3 inhibitor) | miR-92a expression in primary culture of podocytes, change (miR-92a) [%] |
| --- | --- | --- | --- |
| O=[N+]([O-])c1ccc2c(c1)S(=O)(=O)C=C2 [Stattic] | inhibited | little or no effect | – |
| anti-miR-92a: 2′O-methylated, end-phosphorothioated antagomir with 3′ cholesterol-TEG, SEQ ID NO: 8, 5′-CAGGCCGGGACAAGUGCAAUA-3′ (VBC biotech) (listed as RNA, chemistry not fully specified) | – | – | −71 |
